Laboratory results published in publication PMC11484942, “Rumicidins are a family of mammalian host-defense peptides plugging the 70S ribosome exit tunnel” (Nature Communications, 2024).
Ends that are not written are not given here.

How the values were obtained:
[1] = tested on: E. coli 1057 R2 (rpoS^Q3stop, macB^N470D); details: MHB + 0.9% NaCl
Experimental: Minimum inhibitory concentrations (MIC) were determined by broth microdilution assay based on Clinical and Laboratory Standards Institute (CLSI) guidelines using BSA in the growth medium to minimize AMP nonspecific adsorption. Bacterial test cultures were grown in the Mueller-Hinton broth (MHB, Sigma) at 37 °C to mid-log phase and then diluted with the 2× MH medium supplemented with 1.8% NaCl (or without salt) so that to reach a final cell concentration of 10^6 CFU/mL. 50 µL of the obtained bacterial suspension were added to aliquots of 50 µL of the peptide solutions serially diluted with sterilized 0.1% bovine serum albumin (BSA) in 96-well flat-bottom polystyrene microplates (Eppendorf #0030730011). […] To verify MIC values, the respiratory activity of the bacteria was determined. Briefly, 5 µL of 0.5 mg/mL resazurin (Sigma) was added to the wells after 24 h (or after 48 h for M. smegmatis) of incubation, and the plate was incubated for additional 3 h. In some cases, MICs were determined in the Lysogeny Broth (LB) or Middlebrook 7H9 medium. The reduction of resazurin to resorufin was recorded. […] The results were expressed as the median values determined based on at least three independent experiments performed in triplicate.
Resistance induction experiments were performed using the previously described method. This approach allows for monitoring MIC values after each transfer. Briefly, on the first day, the overnight culture of the wild-type bacteria was diluted with the 2× MHB supplemented with 1.8% NaCl (or without salt) to reach a final cell concentration of 10^6 CFU/mL. 50 µL of the obtained bacterial suspension were added to aliquots of 50 µL of the peptide solutions serially diluted with the sterilized 0.1% BSA in 96-well flat-bottom polystyrene microplates. After incubation for 20 ± 2 h at 37 °C and 950 rpm, MICs were determined as described above. For each subsequent daily transfer, 2–4 μL of the inoculum taken from the first well containing a sub-inhibitory drug concentration was diluted with 2 mL of the fresh 2× MHB supplemented with 1.8% NaCl (or without salt). […] Multiple repeated passages in the presence of antimicrobial agents were performed for each bacterial strain during the experiment. Bacteria that grew at the highest concentrations of AMPs on the final day were passaged further 3 times on drug-free agar plates before determining the final MIC value.

P. aeruginosa ATCC 27853 = assay type: cell-based, Pseudomonas aeruginosa; details: ATCC 27853, 24 h
Experimental: (§1) The reduction of resazurin to resorufin was recorded.

S. aureus ATCC 29213 = assay type: cell-based, Staphylococcus aureus; details: ATCC 29213, 24 h
Experimental: as §1

M. luteus B-1314 = assay type: cell-based, Micrococcus luteus; details: B-1314, 24 h
Experimental: as §1

[2] = tested on: Mycobacterium smegmatis mc(2)155; assay type: cell-based; details: Mycobacterium mc(2)155, 24 h
Experimental: as §1

[3] = tested on: Proteus mirabilis XDR CI 3423; assay type: cell-based; details: XDR CI 3423, 24 h
Experimental: as §1

E. cloacae XDR CI 4172 = assay type: cell-based, Enterobacter cloacae; details: XDR CI 4172, 24 h
Experimental: as §1

[4] = tested on: HEK293T (transformed embryonic kidney cells); test: MTT cytotoxicity; assay type: cell-based, human; details: mean
Experimental: (§2) Hemolytic activity of the peptides was tested against the fresh suspension of human red blood cells (hRBC) using the hemoglobin release assay as described previously. Two experiments were performed with the hRBC from blood samples collected from healthy donors by certified medical personnel upon informed written consent. All procedures were approved by the Ethics Committee of the Institute of Experimental Medicine (protocol 1/20 of 2/27/2020) and comply with the ethical principles of the Declaration of Helsinki. The quantitative data were represented as average means with standard deviations. The colorimetric 3-(4,5-dimethylthiazol-2-yl)-2,5-diphenyltetrazolium bromide (MTT) dye reduction assay was used to determine cytotoxicity of the peptides against human keratinocyte cell line (HaCaT) and transformed human embryonic kidney cells (HEK293T). Both cell lines were purchased from American Type Culture Collection (ATCC). 10^4 cells per well in Dulbecco’s modified Eagle’s medium (DMEM/F12) supplemented with 10% fetal bovine serum (FBS, Invitrogen) were placed into 96-well plates and then cultured in the CO2-incubator (5% CO2, 37 °C). After the media were removed, the peptides were dissolved in 100 µL of the same medium and added to cell cultures at different final concentrations. 20 h later, 20 μL of MTT (5 mg/mL, Sigma) was added to each well, and the plates were incubated for 4 h at 37 °C. Then, the media were discarded and 100 µL DMSO-isopropanol mixture at a ratio of 1:1 (v/v) was added to each well to dissolve the crystallized formazan. The absorbance at 570 nm was measured by a microplate reader AF2200 (Eppendorf). An optical density in the wells containing cells cultured without the peptides was assumed to represent 100% cell viability. Two independent experiments were performed for each peptide.

HaCaT (keratinocytes) = test: MTT cytotoxicity; assay type: cell-based, human
Experimental: as §2

[5] = tested on: human red blood cells (hRBC); test: Hemolysis (hemoglobin release assay); assay type: cell-based; details: mean
Experimental: as §2

E. coli ATCC 25922 = assay type: cell-based, Escherichia coli; details: ATCC 25922, 24 h
Experimental: as §1

panel of tested strains = details: over all tested strains of Fig. 6a
Experimental: Minimum inhibitory concentrations (MIC) were determined by broth microdilution assay based on Clinical and Laboratory Standards Institute (CLSI) guidelines using BSA in the growth medium to minimize AMP nonspecific adsorption[49]. Bacterial test cultures were grown in the Mueller-Hinton broth (MHB, Sigma) at 37 °C to mid-log phase and then diluted with the 2× MH medium supplemented with 1.8% NaCl (or without salt) so that to reach a final cell concentration of 10^6 CFU/mL. 50 µL of the obtained bacterial suspension were added to aliquots of 50 µL of the peptide solutions serially diluted with sterilized 0.1% bovine serum albumin (BSA) in 96-well flat-bottom polystyrene microplates (Eppendorf #0030730011). […] To verify MIC values, the respiratory activity of the bacteria was determined. Briefly, 5 µL of 0.5 mg/mL resazurin (Sigma) was added to the wells after 24 h (or after 48 h for M. smegmatis) of incubation, and the plate was incubated for additional 3 h. In some cases, MICs were determined in the Lysogeny Broth (LB) or Middlebrook 7H9 medium. The reduction of resazurin to resorufin was recorded. […] The results were expressed as the median values determined based on at least three independent experiments performed in triplicate.

[6] = tested on: ribosome on ermCL / RST1 mRNA; test: Toe-printing (primer-extension inhibition) in PURExpress system; assay type: biochemical; details: 5 µM
Experimental: Toe-print analysis was performed as previously described[20] on two matrices: ErmCL and RST1. Briefly, the PURExpress system (NEB) was used for transcription and subsequent translation, then a reverse transcription reaction was performed. The ErmCL template was generated by PCR with two partially self-complementary oligonucleotides (Erm-F and Erm-R, Supplementary Table 8). […] oligonucleotide was used for reverse transcription. RST1 template was prepared as previously described[58] using PCR primers (T7fwd and NV1). Concentrations of tested compounds in toe-print were 0.5, 5, or 50 μM. 1% (v/v) DMSO water solution was used as a negative control sample. Two independent experiments were performed using both matrices, and the observed effects were the same.

E. coli BW25113 = test: MIC broth microdilution; assay type: cell-based, Escherichia coli
Experimental: as §1

[7] = tested on: E. coli BL21 (DE3) Star cell extract; test: Cell-free protein synthesis (coupled transcription/translation) of EGFP; assay type: biochemical, Escherichia coli; details: minimum concentration that provides >90% inhibition of the EGFP synthesis in the CFPS system
Experimental: To investigate the effects of AMPs and antibiotics on the coupled transcription/translation process, the test compounds were added to a cell-free protein synthesis (CFPS) reaction mix with a plasmid encoding enhanced green fluorescent protein (EGFP) variant (F64L, S65T, Q80R, F99S, M153T, and V163A) under control of the T7 promoter. The cell lysate was prepared using the E. coli BL21 Star (DE3) overexpressed T7 RNA polymerase as described previously. The reaction mix consisted of the following components: 1.2 mM ATP, 0.8 mM UTP, 0.8 mM GTP, 0.8 mM CTP, 2 mM of each of 20 proteinogenic amino acids, 1.5 mM spermidine, 1 mM putrescine dihydrochloride, 0.06647 mM calcium folinate, […] tRNA from the E. coli MRE 600 strain, 0.33 mM NAD, 120 mM HEPES-KOH (pH 8.0), 10 mM ammonium glutamate, 175 mM potassium glutamate, 60 mM glucose, 15 mM magnesium glutamate, 2% PEG 8000, 25% E. coli BL21 Star (DE3) cell lysate, 1 ng/ml plasmid DNA. The reaction volume was 50 µL. The peptides were dissolved in PBS with the addition of 0.1% BSA. Erythromycin was used in the positive control reactions. The fluorescence of the sample without inhibitor was set as the 100% value. The reaction proceeded for 2 h in 96-well v-bottom black polystyrene microplates (Eppendorf #0030601904) in a plate shaker (30 °C, 1000 rpm). The fluorescence of the synthesized EGFP was measured with the microplate reader AF2200 (λEx = 488 nm, λEm = 510 nm; Eppendorf). The experimental data were obtained from at least two independent experiments performed in triplicate. Non-linear regression curves were generated using GraphPad Prism v.8.0.1 (GraphPad Software Inc.).

E. coli ML-35p = test: Cytoplasmic membrane permeability assay (ONPG); assay type: cell-based, Escherichia coli; details: 4 h exposure, 10 mM NaPB pH 7.4 + 0.9% NaCl, melittin = 100%, mean of two experiments
Experimental: To examine the ability of the peptides to affect the barrier function of outer and inner membranes of Gram-negative bacteria, we slightly modified the previously described procedure[22] with the use of the E. coli ML-35p strain constitutively expressing cytoplasmic β-galactosidase but lacking lactose permease, and also containing β-lactamase in the periplasmic space. The state of the E. coli ML-35p outer and cytoplasmic membranes was assessed based on their permeability to chromogenic markers nitrocefin (Calbiochem) and o-nitrophenyl-β-D-galactopyranoside (ONPG, AppliChem) which are the β-lactamase and β-galactosidase substrates, respectively. The cells were incubated in the trypticase soy broth (TSB) for 16 h at 37 °C, washed three times with phosphate-buffered saline (PBS, pH 7.4) to remove residual growth media, adjusted to the concentration of 2.5 × 10^8 CFU/mL, and stored on ice until used. Experiments were performed in 10 mM sodium phosphate buffer (NaPB, pH 7.4) with or without the addition of 0.9% NaCl and/or a mixture of divalent cations (0.5 mM CaCl2 and 0.5 mM MgSO4). The final concentration of E. coli ML-35p cells was of 2.5 × 10^7 CFU/mL. The concentrations of ONPG and nitrocefin were of 2.5 mM and 20 µM, respectively. Peptide samples were placed in the wells of a 96-well flat-bottom polystyrene microplate, and optical density of the solution enhanced due to an appearance of the hydrolyzed nitrocefin or ONPG and was measured at 492 and 405 nm, respectively, using a microplate reader AF2200. The final volume in each well was 200 µL. Assays were performed at 37 °C under stirring at 500 rpm. Control experiments were performed under the same conditions without adding a peptide. Two independent experiments were performed, and the curve pattern was the same.

mycobacteria = details: cited from earlier work
Description: To estimate the therapeutic potential of rumicidins as candidate compounds for combating bacterial infections, we assessed their antimicrobial activity against a wide panel of strains. As expected, antibacterial activities of rumicidins, like those of known PrAMPs, decreased in most cases in the presence of salt, which might inhibit the adsorption of the peptides to the bacterial surface. Besides, their activities against Gram-negative bacteria deficient in SbmA protein (Pseudomonas aeruginosa and Proteus mirabilis) were also less pronounced. Amon ...

## RRRPRPPYLPRPRPPPFFPPRL [PR-39[1-22]]
[1]
  MIC: 32 µM
P. aeruginosa ATCC 27853
  MIC P. aeruginosa ATCC 27853: > 32 µM
S. aureus ATCC 29213
  MIC S. aureus ATCC 29213: > 32 µM
M. luteus B-1314
  MIC M. luteus B-1314: > 32 µM
[2]
  MICs depending on the test medium: 8 to 16 µM
  Minimum inhibitory concentration (MIC): 8 µM
[3]
  MIC Proteus mirabilis XDR CI 3423: > 32 µM

## RRIRPRPPRLPRPRPRPLPFPR [Bac7[1-22]]
[1]
  MIC: 32 µM
S. aureus ATCC 29213
  MIC S. aureus ATCC 29213: > 32 µM
E. cloacae XDR CI 4172
  MIC E. cloacae XDR CI 4172: 1 µM
[4]; 1 µM
  HEK293T cell viability: 111.372%
[4]; 2 µM
  HEK293T cell viability: 111.629%
[4]; 4 µM
  HEK293T cell viability: 112.981%
[4]; 8 µM
  HEK293T cell viability: 107.36%
[4]; 16 µM
  HEK293T cell viability: 102.824%
[4]; 32 µM
  HEK293T cell viability: 100.41%
[4]; 64 µM
  HEK293T cell viability: 98.194%
HaCaT (keratinocytes); 1 µM
  HaCaT cell viability: 99.202%
HaCaT (keratinocytes); 2 µM
  HaCaT cell viability: 105.318%
HaCaT (keratinocytes); 4 µM
  HaCaT cell viability: 103.256%
HaCaT (keratinocytes); 8 µM
  HaCaT cell viability: 103.504%
HaCaT (keratinocytes); 16 µM
  HaCaT cell viability: 102.717%
HaCaT (keratinocytes); 32 µM
  HaCaT cell viability: 102.854%
HaCaT (keratinocytes); 64 µM
  HaCaT cell viability: 101.039%
[5]; 0.25 µM
  Hemolysis: 0.017%
[5]; 0.5 µM
  Hemolysis: 0.093%
[5]; 1 µM
  Hemolysis: 0.134%
[5]; 2 µM
  Hemolysis: 0.206%
[5]; 4 µM
  Hemolysis: 0.371%
[5]; 8 µM
  Hemolysis: 0.43%
[5]; 16 µM
  Hemolysis: 0.525%
[5]; 32 µM
  Hemolysis: 0.835%
[5]; 64 µM
  Hemolysis: 1.043%
E. coli ATCC 25922
  MIC E. coli ATCC 25922: 1 µM

## RIKIPRPPKPRRPHRPRPGRRRPWFPPRFP [Rumicidin-3]
[1]
  MIC: 4 µM
S. aureus ATCC 29213
  MIC S. aureus ATCC 29213: > 32 µM
Panel of tested strains
  median MIC: about 2 µM
[2]
  Minimum inhibitory concentration (MIC): 4 µM

## KPRPPHRPRPRPRPWFPPRFP [Rum-1[9-29]]
[6]
  toe-print result: strong AUG toe-print signal comparable to that of the wild-type peptide
E. coli BW25113; Mueller-Hinton broth + 0.9% NaCl, 24 h 37 °C, median of ≥3 experiments
  Minimum inhibitory concentration MHB + 0.9% NaCl: 32 µM
E. coli BW25113; Mueller-Hinton broth without salt, 24 h 37 °C, median of ≥3 experiments
  Minimum inhibitory concentration MHB: 8 µM
E. coli BW25113; N-terminal shortening
  fold change of MIC vs wild-type rumicidin-1: ≥ 4 fold
[7]
  Protein synthesis inhibition: 4 µM
E. coli ML-35p; 4 µM
  permeabilized cells (ONPG hydrolysis, % of melittin): 0.080%
E. coli ML-35p; 16 µM
  permeabilized cells (ONPG hydrolysis, % of melittin): 1.213%
E. coli ML-35p; 64 µM
  permeabilized cells (ONPG hydrolysis, % of melittin): 3.493%

## PR-39
mycobacteria
  MIC: ~ 10 µM
